Data published in PubChem BioAssay (NCI).
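Tested at 5 concentrations; 48 h exposure; 96-well plates; endpoints linearly interpolated, else capped at highest concentration. Here, GI50 denotes the concentration required for 50% inhibition of growth. TGI denotes the concentration required for complete inhibition of growth.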

Columns and labels:
Assay in all cases: inhibition of tumour cell growth, NCI panel, 48 h
EKVX NSCLC = system: EKVX NSCLC
HCC-2998 colon = system: HCC-2998 colon
HOP-92 NSCLC = system: HOP-92 NSCLC
KM20L2 colon = system: KM20L2 colon
M14 melanoma = system: M14 melanoma
MALME-3M melanoma = system: MALME-3M melanoma
TK-10 renal = system: TK-10 renal
XF 498 CNS = system: XF 498 CNS
MDA-MB-231 breast = system: MDA-MB-231 breast
MDA-MB-435 = system: MDA-MB-435

N/N=C(\CC1OC(=O)c2ccccc21)c1ccco1 (stereo unspecified)
TGI (EKVX NSCLC): > 100 µM
TGI (HCC-2998 colon): > 100 µM
TGI (HOP-92 NSCLC): > 100 µM
TGI (KM20L2 colon): > 100 µM
TGI (M14 melanoma): > 100 µM
TGI (MALME-3M melanoma): > 100 µM
TGI (TK-10 renal): > 100 µM

C1CNCCNCCNCCN1
TGI (EKVX NSCLC): > 100 µM
TGI (HCC-2998 colon): > 100 µM
TGI (KM20L2 colon): > 100 µM
TGI (M14 melanoma): > 100 µM
TGI (MALME-3M melanoma): > 100 µM
TGI (TK-10 renal): > 100 µM

Cc1cc(O)c(C(=O)CC2(O)C(=O)Nc3c(Cl)cc(Cl)cc32)c(=O)o1 (stereo unspecified)
TGI (EKVX NSCLC): > 100 µM
TGI (HCC-2998 colon): > 100 µM
TGI (HOP-92 NSCLC): > 100 µM
TGI (KM20L2 colon): > 100 µM
TGI (M14 melanoma): > 100 µM
TGI (MALME-3M melanoma): > 100 µM
TGI (TK-10 renal): > 100 µM
TGI (XF 498 CNS): > 100 µM

CC(=O)OCSc1ncnc2c1ncn2CN1CCOCC1
TGI (EKVX NSCLC): > 100 µM
TGI (HCC-2998 colon): > 100 µM
TGI (HOP-92 NSCLC): > 100 µM
TGI (KM20L2 colon): > 100 µM
TGI (M14 melanoma): > 100 µM
TGI (MALME-3M melanoma): > 100 µM
TGI (TK-10 renal): > 100 µM

COc1cc2c(c(OC)c1OC)-c1ccc(SC)c(=O)cc1[C@@H](NC(=O)c1ccc(OC(C)=O)cc1)CC2
TGI (EKVX NSCLC): > 100 µM
TGI (HCC-2998 colon): 0.0549 µM
TGI (HOP-92 NSCLC): 0.0311 µM
TGI (KM20L2 colon): 0.0358 µM
GI50 (TK-10 renal): 0.0113 µM
TGI (TK-10 renal): 33.4 µM
TGI (XF 498 CNS): 0.0597 µM

COC1/C(=C\C(=O)OC(C)(C)C)c2ccccc2N1C(C)=O (stereo unspecified)
TGI (EKVX NSCLC): > 100 µM
TGI (HCC-2998 colon): > 100 µM
TGI (KM20L2 colon): > 100 µM
TGI (M14 melanoma): > 100 µM
TGI (XF 498 CNS): > 100 µM

N#CCc1ccc(C(C#N)/C(CCCC(=O)Nc2cccc([N+](=O)[O-])c2)=N\NC(=O)NN)cc1 (stereo unspecified)
TGI (EKVX NSCLC): > 100 µM
TGI (HCC-2998 colon): > 100 µM
TGI (HOP-92 NSCLC): > 100 µM
TGI (KM20L2 colon): > 100 µM
TGI (M14 melanoma): > 100 µM
TGI (MALME-3M melanoma): > 100 µM
TGI (TK-10 renal): > 100 µM

O=[N+]([O-])c1ccc(Sc2c3ccccc3nc3ccccc23)cc1
TGI (EKVX NSCLC): > 100 µM
TGI (HCC-2998 colon): > 100 µM
TGI (KM20L2 colon): > 100 µM
TGI (M14 melanoma): > 100 µM
TGI (MALME-3M melanoma): > 100 µM
TGI (XF 498 CNS): > 100 µM

Cc1cccc(C)c1NC(=O)CCCC(=O)CC(=O)/C=C/c1ccccc1
TGI (HOP-92 NSCLC): > 100 µM
TGI (KM20L2 colon): > 100 µM
TGI (M14 melanoma): > 100 µM
TGI (MALME-3M melanoma): > 100 µM
TGI (TK-10 renal): > 100 µM
TGI (XF 498 CNS): > 100 µM

CCOC(=O)/C(=C\c1ccc(OCc2ccccc2)c(OC)c1)C(=O)c1ccccc1
TGI (EKVX NSCLC): 66.2 µM
TGI (HCC-2998 colon): > 100 µM
TGI (KM20L2 colon): 34.3 µM
TGI (M14 melanoma): 30.5 µM
TGI (MALME-3M melanoma): 32.3 µM
TGI (TK-10 renal): 61 µM
TGI (XF 498 CNS): 32.3 µM

CN(C)CC(/C(Cc1ccccc1)=N\NC(=O)c1ccncc1)c1ccccc1 (stereo unspecified)
TGI (EKVX NSCLC): 68.1 µM
TGI (HCC-2998 colon): > 100 µM
TGI (HOP-92 NSCLC): > 100 µM
TGI (KM20L2 colon): 92.3 µM
TGI (M14 melanoma): > 100 µM
TGI (MALME-3M melanoma): 93.4 µM
TGI (TK-10 renal): > 100 µM
TGI (XF 498 CNS): > 100 µM

Cc1nc2c(=O)[nH]c(=O)n(C)c2[nH]c1=O
TGI (EKVX NSCLC): > 100 µM
TGI (HCC-2998 colon): > 100 µM
TGI (HOP-92 NSCLC): > 100 µM
TGI (KM20L2 colon): > 100 µM
TGI (M14 melanoma): > 100 µM
TGI (MALME-3M melanoma): > 100 µM
TGI (TK-10 renal): > 100 µM

NCCCN(CCCN)CCCNCc1c2ccccc2c(CNCCCN(CCCN)CCCN)c2ccccc12
TGI (EKVX NSCLC): 28.4 µM
TGI (HCC-2998 colon): 20.1 µM
TGI (HOP-92 NSCLC): 89.1 µM
TGI (KM20L2 colon): 47.8 µM
TGI (M14 melanoma): 28.5 µM
TGI (MALME-3M melanoma): 22.4 µM
TGI (TK-10 renal): 23.1 µM
TGI (XF 498 CNS): 38.1 µM

O=C(CNC(=O)OCc1ccccc1)Oc1ccccc1
TGI (EKVX NSCLC): > 100 µM
TGI (HCC-2998 colon): > 100 µM
TGI (HOP-92 NSCLC): > 100 µM
TGI (KM20L2 colon): > 100 µM
TGI (M14 melanoma): > 100 µM
TGI (MALME-3M melanoma): > 100 µM
TGI (TK-10 renal): > 100 µM
TGI (XF 498 CNS): > 100 µM

CCN1C(=O)N(CC)C2C1NN=c1s/c(=C3\C(=O)N(CC(C)C)c4ccccc43)c(=O)n12 (stereo unspecified)
GI50 (EKVX NSCLC): 1.56 µM
TGI (EKVX NSCLC): > 100 µM
GI50 (HCC-2998 colon): 2.38 µM
TGI (HCC-2998 colon): > 100 µM
GI50 (HOP-92 NSCLC): 4.04 µM
TGI (HOP-92 NSCLC): > 64.1 µM
GI50 (M14 melanoma): 0.445 µM
TGI (M14 melanoma): > 100 µM
GI50 (MALME-3M melanoma): 0.885 µM
TGI (MALME-3M melanoma): > 77.7 µM
GI50 (MDA-MB-231 breast): 2.05 µM
TGI (MDA-MB-231 breast): > 30.6 µM
GI50 (MDA-MB-435): 0.224 µM
TGI (MDA-MB-435): 0.521 µM
GI50 (TK-10 renal): 8.08 µM
TGI (TK-10 renal): > 56.6 µM

c1ccc2[nH]c(SSc3nc4ncncc4[nH]3)nc2c1
GI50 (EKVX NSCLC): 25.9 µM
TGI (EKVX NSCLC): > 100 µM
GI50 (HCC-2998 colon): 1.9 µM
TGI (HCC-2998 colon): > 100 µM
GI50 (HOP-92 NSCLC): 0.375 µM
TGI (HOP-92 NSCLC): > 90.8 µM
GI50 (M14 melanoma): 0.347 µM
TGI (M14 melanoma): 82.1 µM
GI50 (MALME-3M melanoma): 2.01 µM
TGI (MALME-3M melanoma): > 66.1 µM
GI50 (MDA-MB-231 breast): 2.9 µM
TGI (MDA-MB-231 breast): > 100 µM
GI50 (MDA-MB-435): 0.446 µM
TGI (MDA-MB-435): > 100 µM
GI50 (TK-10 renal): 0.364 µM
TGI (TK-10 renal): > 37.3 µM

CC1Cc2c(N)nc(NN)nc2NC1=O (stereo unspecified)
TGI (EKVX NSCLC): > 100 µM
TGI (KM20L2 colon): > 100 µM
TGI (M14 melanoma): > 100 µM
TGI (MALME-3M melanoma): > 100 µM
TGI (TK-10 renal): > 100 µM
TGI (XF 498 CNS): > 100 µM

Cc1cccc(C)c1NC(=O)/C(Cl)=C(/Cl)C(=O)O
TGI (EKVX NSCLC): 35.7 µM
TGI (HCC-2998 colon): 32.2 µM
TGI (HOP-92 NSCLC): 30.3 µM
TGI (KM20L2 colon): 20.8 µM
TGI (M14 melanoma): 12.6 µM
TGI (MALME-3M melanoma): 29.7 µM
TGI (MDA-MB-231 breast): 41.7 µM
TGI (MDA-MB-435): 51 µM
TGI (TK-10 renal): 21.6 µM
TGI (XF 498 CNS): 28.6 µM

CC1(CO)OC1COCc1ccccc1 (stereo unspecified)
TGI (EKVX NSCLC): > 100 µM
TGI (HOP-92 NSCLC): > 100 µM
TGI (KM20L2 colon): > 100 µM
TGI (M14 melanoma): > 100 µM
TGI (MALME-3M melanoma): > 100 µM
TGI (XF 498 CNS): > 100 µM

COc1ccc2c([nH]c3cc(O)c(C)cc32)c1C=O
TGI (HCC-2998 colon): > 25 µM
TGI (HOP-92 NSCLC): > 25 µM
TGI (KM20L2 colon): > 25 µM
TGI (M14 melanoma): > 25 µM
TGI (MALME-3M melanoma): > 25 µM
TGI (TK-10 renal): > 25 µM
TGI (XF 498 CNS): > 25 µM

CN(NC(=O)CC(=O)NN(C)C(=S)c1ccccc1)C(=S)c1ccccc1
TGI (EKVX NSCLC): > 100 µM
TGI (HCC-2998 colon): > 100 µM
TGI (HOP-92 NSCLC): > 100 µM
GI50 (M14 melanoma): > 73.7 µM
TGI (M14 melanoma): > 100 µM
GI50 (MALME-3M melanoma): > 69.5 µM
TGI (MALME-3M melanoma): > 100 µM
GI50 (MDA-MB-231 breast): > 100 µM
TGI (MDA-MB-231 breast): > 100 µM
GI50 (MDA-MB-435): > 84.4 µM
TGI (MDA-MB-435): > 100 µM
TGI (TK-10 renal): > 100 µM

O=[N+]([O-])c1ccc(-c2nc(N(CCO)CCO)c3ccccc3n2)o1
GI50 (EKVX NSCLC): 0.464 µM
TGI (EKVX NSCLC): 4.31 µM
GI50 (HCC-2998 colon): 0.194 µM
TGI (HCC-2998 colon): 0.442 µM
GI50 (HOP-92 NSCLC): 0.247 µM
TGI (HOP-92 NSCLC): 0.831 µM
GI50 (M14 melanoma): 0.143 µM
TGI (M14 melanoma): 0.316 µM
GI50 (MALME-3M melanoma): 0.155 µM
TGI (MALME-3M melanoma): 0.373 µM
GI50 (MDA-MB-231 breast): 1.08 µM
TGI (MDA-MB-231 breast): 4.25 µM
GI50 (MDA-MB-435): 0.309 µM
TGI (MDA-MB-435): 1.27 µM
GI50 (TK-10 renal): 0.286 µM

CC(C)=CC(=O)Oc1ccc([N+](=O)[O-])cc1
TGI (EKVX NSCLC): > 100 µM
TGI (HCC-2998 colon): > 100 µM
TGI (HOP-92 NSCLC): > 100 µM
TGI (KM20L2 colon): > 100 µM
TGI (M14 melanoma): > 100 µM
TGI (MALME-3M melanoma): > 100 µM
TGI (TK-10 renal): > 100 µM
TGI (XF 498 CNS): > 100 µM

O=C1CCCCCCCCCCC(=O)C2CCOCCOCCOCCC1Cc1cccc(n1)C2
TGI (EKVX NSCLC): > 100 µM
TGI (HCC-2998 colon): > 100 µM
TGI (KM20L2 colon): > 100 µM
TGI (M14 melanoma): > 100 µM
TGI (MALME-3M melanoma): > 100 µM
TGI (TK-10 renal): > 100 µM
TGI (XF 498 CNS): > 100 µM

C=C1CC[C@@]2(C#N)[C@H]3[C@H](CC[C@@H]2C)[C@@H](C)C[C@@H](CC(C)(C)C#N)[C@H]13
GI50 (EKVX NSCLC): 1.12 µM
TGI (EKVX NSCLC): 45.7 µM
GI50 (HCC-2998 colon): 2.95 µM
TGI (HCC-2998 colon): 20.6 µM
GI50 (HOP-92 NSCLC): 0.2 µM
TGI (HOP-92 NSCLC): 0.68 µM
GI50 (M14 melanoma): 1.48 µM
TGI (M14 melanoma): 12.5 µM
GI50 (MALME-3M melanoma): 5.23 µM
TGI (MALME-3M melanoma): 40.8 µM
GI50 (MDA-MB-231 breast): 6.1 µM
TGI (MDA-MB-231 breast): 35.8 µM
GI50 (MDA-MB-435): 2.06 µM
TGI (MDA-MB-435): 95.7 µM
GI50 (TK-10 renal): 0.969 µM
TGI (TK-10 renal): 31.5 µM
